According to US9265771B2, “Method for treating Lyme disease” (Zoetis Services LLC, priority 2012, dated 2016):
“And” between values parts separate entries of the source, which are not always exact repeats. Equal values may be shown once.

Assays:
Assay type in all cases: in vivo, beagle dogs
B. burgdorferi [1] = assay: Study B: QC6 ELISA in tick-infected dogs; settings: 8 dogs/group
Source text: (§1) Three outer surface proteins (Osp) on B. burgdorferi are important for diagnosis and prevention, and are expressed by the organism in response to its local environment. […] OspF is another surface protein that is generally observed in late-stage disease. The C in […] refers to a 25-amino acid, C6 peptide in the sixth invariable region of an outer membrane lipoprotein (VIsE). Antibody against C6 is highly accurate as a serologic diagnosis of Lyme disease independent of a subject's (e.g., canine) vaccination status. Further, the generation of C6 antibodies implies an active infection with viable spirochetes. Serological methods for detecting B. burgdorfer/Lyme disease were conducted using the IDEXX qualitative SNAP-4Dx ELISA and the Quantitative C6 (Quant C6 or QC6) diagnostic kits, which are enzyme linked immunosorbent assays against the previously described 25-amino-acid C6 peptide. QC6 ELISA data, units/mL, are useful for guidance in initiating and evaluating response to therapy (See Levy S A, O'Connor T P, Hanscom J L, Shields P, et al. Quantitative measurement of a C6 antibody following antibiotic treatment of Borrelia burgdorferi antibody-positive, nonclinical dogs. Clin Vacc Immunol 2008; 15(1):115-119 and Littman M P, Goldstein R E, Labato M A, et al. ACVIM Small Animal Concensus Statement on Lyme Disease in Dogs: Diagnosis, Treatment and Prevention. J Vet Intern Med 2006; 20: 422-434).
(§2) Thirty-two (18 male and 14 female) beagle dogs were sero-negative for Borrelia burgdorferi, not vaccinated with any Borrelia spp vaccines, and acclimated at the study facility for seven days. The study was conducted under National Research Council guidelines (1996). […] Field-caught Ixodes from the northeast USA were placed on the dogs without containment chambers for 10 days; after ticks fed to repletion, dogs were treated with two applications of an approved topical acaricide with a 30-day interval between applications.
(§3) Forty days post-challenge, and prior to antibiotic treatments, blood was collected from each dog as were two skin biopsy punch samples near tick attachment sites. Blood was collected approximately monthly post-treatment. Skin biopsies were taken near the tick attachment site on Days 48/49, 118, 146, 180, and 315. Serum antibodies to Borrelia were assayed using the IDEXX SNAP-4Dx and QC6 ELISA. In cooperation with Cornell University, serum samples were analyzed using fluorescent-bead-based multiplex assays detecting antibodies against B. burgdorferi outer surface proteins OspA, OspC, and OspF. Data were expressed as median fluorescent intensities (MFI), and shown to be specific and sensitive to provide interpretative guidelines regarding infection. The skin biopsies were collected for a polymerase chain reaction (PCR; FlaB) assay and cultured for spirochete detection. At the end of the study, blood and skin biopsies were collected and synovial tissue from the joints were harvested at necropsy.
(§4) On Day 75 and Day 89 Convenia was administered to the eight dogs in T04 (8 mg/kg bodyweight; subcutaneous injection). The other treated groups received their respective regimens daily and orally for 30 days from Days 75 to 104. […] Dogs in T01 served as infected, untreated, controls. Inter-treatment comparisons to evaluate antibiotic efficacy included clinical signs, serology, culture results and pathology.

[2] = tested on: B. burgdorferi outer surface protein OspC; assay: Study B: fluorescent-bead-based multiplex assay, antibodies against OspC; settings: Day 281
Protocol: as §2
as §3, with “At the end of the study, blood and skin biopsies were collected and synovial tissue from the joints were harvested at necropsy.” left out

B. burgdorferi [3] = assay: Study B: microscopic examination of joints and skin at necropsy; settings: for Number of Joints with Changes as Described for Lyme disease: N = 8
Protocol: as §2, §3, §4
At necropsy ten joints were harvested per each dog, formalin-fixed, stained and examined microscopically. Joints included the carpus, elbow, shoulder, stifle and tarsus on both the right and left limbs. Further, a section of skin near tick attachment sites was evaluated from each dog. There were two dogs in the Convenia group (25%) with tissues showing changes as described for Lyme disease, compared to seven controls (87.5%) and three (37.5%) to four (50.0%) dogs in the other antibiotic-treated groups (Table 7). […] The Convenia group had the lowest incidence of joint changes with six affected of 80.

B. burgdorferi [4] = assay: Study B: SNAP-4Dx ELISA in tick-infected dogs; settings: for SNAP-4Dx Positives, Number of Dogs: N = 8/group
Source text: as §1, §2, §3, §4

[5] = tested on: B. burgdorferi outer surface protein OspF; assay: Study B: fluorescent-bead-based multiplex assay, antibodies against OspF; settings: for Multiplex Assay OspF: No. Dogs > Positive Threshold (# dogs > 1500): 8 dogs/group
Protocol: as §2
as §3, with “Data were expressed as median fluorescent intensities (MFI), and shown to be specific and sensitive to provide interpretative guidelines regarding infection.” left out
On Day 75 and Day 89 Convenia was administered to the eight dogs in T04 (8 mg/kg bodyweight; subcutaneous injection). The other treated groups received their respective regimens daily and orally for 30 days from Days 75 to 104. […] Dogs in T01 served as infected, untreated, controls.

[6] = joints, skin, 8 dogs/group, necropsy

Compound: CC1(C)S[C@@H]2[C@H](NC(=O)[C@H](N)c3ccc(O)cc3)C(=O)N2[C@H]1C(=O)O [amoxicillin]
- Dogs Sero-converted to B. burgdorferi per QC6 ELISA (≧30 U/mL), (%) (B. burgdorferi [1]; Day 48 (pre-treatment)): 100.0%
- Number of Dogs Sero-converted to B. burgdorferi per QC6 ELISA (≧30 U/mL), No. (B. burgdorferi [1]; Day 48 (pre-treatment)): 8
- Dogs Sero-converted to B. burgdorferi per QC6 ELISA (≧30 U/mL), (%) (B. burgdorferi [1]; Day 111): 75.0%
- Number of Dogs Sero-converted to B. burgdorferi per QC6 ELISA (≧30 U/mL), No. (B. burgdorferi [1]; Day 111): 6
- Dogs Sero-converted to B. burgdorferi per QC6 ELISA (≧30 U/mL), (%) (B. burgdorferi [1]; Day 145): 0.0%
- Number of Dogs Sero-converted to B. burgdorferi per QC6 ELISA (≧30 U/mL), No. (B. burgdorferi [1]; Day 145): 0
- Dogs Sero-converted to B. burgdorferi per QC6 ELISA (≧30 U/mL), (%) (B. burgdorferi [1]; Day 179): 0.0%
- Number of Dogs Sero-converted to B. burgdorferi per QC6 ELISA (≧30 U/mL), No. (B. burgdorferi [1]; Day 179): 0
- Dogs Sero-converted to B. burgdorferi per QC6 ELISA (≧30 U/mL), (%) (B. burgdorferi [1]; Day 221): 0.0%
- Number of Dogs Sero-converted to B. burgdorferi per QC6 ELISA (≧30 U/mL), No. (B. burgdorferi [1]; Day 221): 0
- Dogs Sero-converted to B. burgdorferi per QC6 ELISA (≧30 U/mL), (%) (B. burgdorferi [1]; Day 251): 0.0%
- Number of Dogs Sero-converted to B. burgdorferi per QC6 ELISA (≧30 U/mL), No. (B. burgdorferi [1]; Day 251): 0
- Dogs Sero-converted to B. burgdorferi per QC6 ELISA (≧30 U/mL), (%) (B. burgdorferi [1]; Day 281): 0.0%
- Number of Dogs Sero-converted to B. burgdorferi per QC6 ELISA (≧30 U/mL), No. (B. burgdorferi [1]; Day 281): 0
- Dogs Sero-converted to B. burgdorferi per QC6 ELISA (≧30 U/mL), (%) (B. burgdorferi [1]; Day 314): 0.0%
- Number of Dogs Sero-converted to B. burgdorferi per QC6 ELISA (≧30 U/mL), No. (B. burgdorferi [1]; Day 314): 0
- Number of dogs above infected threshold (antibody-OspC) [2]: one
- Number of Joints with Changes as Described for Lyme disease, Cumulative (B. burgdorferi [3]; 80 total/group): 12
- Number of Joints with Changes as Described for Lyme disease (B. burgdorferi [3]; Carpus L): 2
- Number of Joints with Changes as Described for Lyme disease (B. burgdorferi [3]; Carpus R): 2
- Number of Joints with Changes as Described for Lyme disease (B. burgdorferi [3]; Elbow L): 1
- Number of Joints with Changes as Described for Lyme disease (B. burgdorferi [3]; Elbow R): 1
- Number of Joints with Changes as Described for Lyme disease (B. burgdorferi [3]; Shoulder L): 0
- Number of Joints with Changes as Described for Lyme disease (B. burgdorferi [3]; Shoulder R): 1
- Number of Joints with Changes as Described for Lyme disease (B. burgdorferi [3]; Stifle L): 1
- Number of Joints with Changes as Described for Lyme disease (B. burgdorferi [3]; Stifle R): 2
- Number of Joints with Changes as Described for Lyme disease (B. burgdorferi [3]; Tarsus L): 1
- Number of Joints with Changes as Described for Lyme disease (B. burgdorferi [3]; Tarsus R): 1
- No Tissue Changes, # Dogs (B. burgdorferi [3]; [6]): 4
- No Tissue Changes, % (B. burgdorferi [3]; [6]): 50%
- Tissue Changes Described for Lyme Disease, # Dogs (B. burgdorferi [3]; [6]): 4
- Tissue Changes Described for Lyme Disease, % (B. burgdorferi [3]; [6]): 50%
- SNAP-4Dx Positives, Number of Dogs (B. burgdorferi [4]; Day 48 (pre-treatment; antibiotics from Day 75)): 5
- SNAP-4Dx Positives, Number of Dogs (B. burgdorferi [4]; Day 111): 7
- SNAP-4Dx Positives, Number of Dogs (B. burgdorferi [4]; Day 145): 3
- SNAP-4Dx Positives, Number of Dogs (B. burgdorferi [4]; Day 179): 2
- SNAP-4Dx Positives, Number of Dogs (B. burgdorferi [4]; Day 221): 0
- SNAP-4Dx Positives, Number of Dogs (B. burgdorferi [4]; Day 251): 0
- SNAP-4Dx Positives, Number of Dogs (B. burgdorferi [4]; Day 281): 0
- SNAP-4Dx Positives, Number of Dogs (B. burgdorferi [4]; Day 315): 0
- SNAP-4Dx Positives, Number of Dogs (B. burgdorferi [4]; Day −15 (pre-infection)): 0
- SNAP-4Dx positive dogs (B. burgdorferi [4]; rest of the study after Day 179): none positive
- Multiplex Assay OspF: MFI Mean ([5]; Day 48 (pre-treatment)): 1083.75 MFI
- Multiplex Assay OspF: No. Dogs > Positive Threshold (# dogs > 1500) ([5]; Day 48 (pre-treatment)): 2
- Multiplex Assay OspF: No. Dogs > Positive Threshold (# dogs > 1500) ([5]; Day 111): three and 3
- Multiplex Assay OspF: MFI Mean ([5]; Day 145): 458.13 MFI
- Multiplex Assay OspF: No. Dogs > Positive Threshold (# dogs > 1500) ([5]; Day 145): 0
- Multiplex Assay OspF: MFI Mean ([5]; Day 179): 327.88 MFI
- Multiplex Assay OspF: No. Dogs > Positive Threshold (# dogs > 1500) ([5]; Day 179): 0
- Multiplex Assay OspF: MFI Mean ([5]; Day 221): 269.63 MFI
- Multiplex Assay OspF: No. Dogs > Positive Threshold (# dogs > 1500) ([5]; Day 221): 0
- Multiplex Assay OspF: MFI Mean ([5]; Day 251): 288.63 MFI
- Multiplex Assay OspF: No. Dogs > Positive Threshold (# dogs > 1500) ([5]; Day 251): 0
- Multiplex Assay OspF: MFI Mean ([5]; Day 281): 288.88 MFI
- Multiplex Assay OspF: No. Dogs > Positive Threshold (# dogs > 1500) ([5]; Day 281): 0
- Multiplex Assay OspF: MFI Mean ([5]; Day 314): 278.25 MFI
- Multiplex Assay OspF: No. Dogs > Positive Threshold (# dogs > 1500) ([5]; Day 314): 0
- Multiplex Assay OspF: MFI Mean ([5]; Day −15 (pre-infection)): 133.38 MFI
- Multiplex Assay OspF: No. Dogs > Positive Threshold (# dogs > 1500) ([5]; Day −15 (pre-infection)): 0
- Antibody-OspF status of dogs ([5]; after Day 111): all dogs negative thereafter
